Experimental data from patent US9845310B2 (priority 2015, dated 2017).
Like-named read-outs stand apart in the source and are kept apart here.

Legend:
heart failure rat model = format: in vivo
Experimental: Male Lewis rats (Charles River, USA) at 2-3 months of age were used for the study. […] APJ agonists were administered dose dependently acutely for a period of 30 min.

[1] = system: naive Sprague Dawley rat hearts
APJ = APJ (Homo sapiens (Human), UniProt P35414); test: [35S]GTPγS binding assay on membranes from CHO cells stably expressing human APJ receptor; format: biochemical
Experimental: A GTPγS binding assay was performed on membranes prepared from CHO cells stably expressing human APJ receptor. The optimum experimental conditions for the concentrations of GDP, MgCl2, and NaCl in the assay buffer were initially determined. The assay was performed in assay buffer [20 mM HEPES, pH 7.5, 5 mM MgCl2, and 0.1% (w/v) BSA with 200 mM NaCl, 3 M GDP] and membranes expressing human APJ receptor/well along with WGA PS beads. The reaction was initiated by addition of 0.2 nM [^35S]GTPγS (Perkin Elmer Life and Analytical Sciences, Waltham USA) in the absence or presence of various ligands and incubated at RT for 90 min. Nonspecific binding was determined in the presence of 100 M GTPγS and was always less than 0.2% of total binding.

[2] = in vivo heart failure (MI) rat, acute administration for 30 min
[3] = ex vivo isolated perfused rat heart, contractility, percent change over vehicle
[4] = ex vivo isolated perfused rat heart, relaxation (lusitropic), percent change over vehicle
[5] = ex vivo naive Sprague Dawley rat hearts, Langendorff apparatus, as a function of concentration
[6] = read-out: Activity hAPJ SPA EC50 IP

APJ, sequence (P35414 whole entry): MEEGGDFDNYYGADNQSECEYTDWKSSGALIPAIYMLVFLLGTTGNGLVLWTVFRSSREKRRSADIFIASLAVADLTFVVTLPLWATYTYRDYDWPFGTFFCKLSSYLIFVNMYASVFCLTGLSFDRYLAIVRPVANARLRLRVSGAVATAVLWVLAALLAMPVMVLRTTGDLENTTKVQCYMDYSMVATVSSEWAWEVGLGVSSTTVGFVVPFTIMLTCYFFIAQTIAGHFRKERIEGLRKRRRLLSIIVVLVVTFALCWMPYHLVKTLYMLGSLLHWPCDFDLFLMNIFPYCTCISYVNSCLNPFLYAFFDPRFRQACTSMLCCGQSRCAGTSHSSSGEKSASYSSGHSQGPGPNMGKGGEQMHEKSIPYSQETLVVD

COc1cccc(OC)c1-n1c(NS(=O)(=O)[C@H](C)[C@@H](C)c2ncc(Cl)cn2)nnc1-c1cccnc1 (racemic) [Example 694.0, (2R,3S)-3-(5-chloropyrimidin-2-yl)-N-(4-(2,6-dimethoxyphenyl)-5-(pyridin-3-yl)-4H-1,2,4-triazol-3-yl)butane-2-sulfonamide or (2S,3R)-3-(5-chloropyrimidin-2-yl)-N-(4-(2,6-dimethoxyphenyl)-5-(pyridin-3-yl)-4H-1,2,4-triazol-3-yl)butane-2-sulfonamide]
MI Rat Model dP/dtmax(%) (heart failure rat model; [2]): 8% | Isolated Heart Assay dP/dtmax(%) [1, 3]: 18.0% | Isolated Heart Assay dP/dtmin(%) [1, 4]: 32.0%

CCO[C@H](c1ncc(C)cn1)[C@H](C)S(=O)(=O)Nc1nnc(-c2cccnc2)n1-c1c(OC)cccc1OC (single isomer, unassigned) [Example 109.0]
cardiac contractility as measured by dP/dtmax (derivative of left ventricular pressure) (heart failure rat model; male Lewis rats, heart failure by permanent ligation of left descending coronary artery, ejection fraction <35%, dosed acutely for 30 min): increase in cardiac contractility | MI Rat Model dP/dtmax(%) (heart failure rat model; rat, in vivo): 20% | Isolated Heart Assay dP/dtmax(%) [1]: 15% | Isolated Heart Assay dP/dtmin(%) [1]: 25% | left ventricular dP/dtmax (load independent cardiac contractility) [1, 5]: increases load independent cardiac contractility | left ventricular dP/dtmin (load independent cardiac relaxation) [1, 5]: increases load independent cardiac relaxation

COc1cccc(OC)c1-n1c(NS(=O)(=O)[C@H](C)[C@@H](OC)c2ncc(Cl)cn2)nnc1-c1cncc(C)c1 (single isomer, unassigned) [Example 557.0]
MI Rat Model dP/dtmax(%) (heart failure rat model; [2]): No effect | Isolated Heart Assay dP/dtmax(%) [1, 3]: 17.0% | Isolated Heart Assay dP/dtmin(%) [1, 4]: 20.0%

COc1cccc(-c2nnc(NS(=O)(=O)[C@@H](C)[C@H](OC)c3ncc(C)cn3)n2-c2c(OC)ccnc2OC)n1 (single isomer, unassigned) [Example 771.0]
EC50 (APJ; Activity hAPJ SPA EC50 IP (μM)): 0.002 µM

COc1cccc(OC)c1-n1c(NS(=O)(=O)[C@@H](C)[C@H](OC)c2ncnn2C)nnc1-c1cncc(C)c1 (single isomer, unassigned) [Example 781.0, (1R,2S)-N-(4-(2,6-dimethoxyphenyl)-5-(5-methyl-3-pyridinyl)-4H-1,2,4-triazol-3-yl)-1-methoxy-1-(1-methyl-1H-1,2,4-triazol-5-yl)-2-propanesulfonamide or (1S,2R)-N-(4-(2,6-dimethoxyphenyl)-5-(5-methyl-3-pyridinyl)-4H-1,2,4-triazol-3-yl)-1-methoxy-1-(1-methyl-1H-1,2,4-triazol-5-yl)-2-propanesulfonamide]
EC50 (APJ; Activity hAPJ SPA EC50 IP (μM)): 0.59 µM

COc1cccc(OC)c1-n1c(NS(=O)(=O)[C@@H](C)[C@H](OC)c2ncnn2C)nnc1-c1cncc(C)c1 (single isomer, unassigned) [Example 782.0, (1R,2S)-N-(4-(2,6-dimethoxyphenyl)-5-(5-methyl-3-pyridinyl)-4H-1,2,4-triazol-3-yl)-1-methoxy-1-(1-methyl-1H-1,2,4-triazol-5-yl)-2-propanesulfonamide or (1S,2R)-N-(4-(2,6-dimethoxyphenyl)-5-(5-methyl-3-pyridinyl)-4H-1,2,4-triazol-3-yl)-1-methoxy-1-(1-methyl-1H-1,2,4-triazol-5-yl)-2-propanesulfonamide]
EC50 (APJ; Activity hAPJ SPA EC50 IP (μM)): 0.028 µM

COc1cccc(OC)c1-n1c(NS(=O)(=O)[C@H](C)[C@H](OC(C)C)c2cnc(C)cn2)nnc1-c1cccc(C)n1 (single isomer, unassigned) [Example 824.0, (1S,2S)-N-(4-(2,6-dimethoxyphenyl)-5-(6-methylpyridin-2-yl)-4H-1,2,4-triazol-3-yl)-1-isopropoxy-1-(5-methylpyrazin-2-yl)propane-2-sulfonamide or (1R,2R)-N-(4-(2,6-dimethoxyphenyl)-5-(6-methylpyridin-2-yl)-4H-1,2,4-triazol-3-yl)-1-isopropoxy-1-(5-methylpyrazin-2-yl)propane-2-sulfonamide]
EC50 (APJ; Activity hAPJ SPA EC50 IP (μM)): 0.00047 µM

COc1cccc(-c2nnc(NS(=O)(=O)[C@H](C)[C@H](OC(C)C)c3cnc(C)cn3)n2-c2c(OC)cccc2OC)n1 (single isomer, unassigned) [Example 825.0, (1S,2S)-N-(4-(2,6-dimethoxyphenyl)-5-(6-methoxypyridin-2-yl)-4H-1,2,4-triazol-3-yl)-1-isopropoxy-1-(5-methylpyrazin-2-yl)propane-2-sulfonamide or (1R,2R)-N-(4-(2,6-dimethoxyphenyl)-5-(6-methoxypyridin-2-yl)-4H-1,2,4-triazol-3-yl)-1-isopropoxy-1-(5-methylpyrazin-2-yl)propane-2-sulfonamide]
EC50 (APJ; [6]): 0.00015 µM

COc1cccc(OC)c1-n1c(NS(=O)(=O)[C@@H](C)[C@@H](OC(C)C)c2ncc(C)cn2)nnc1-c1cncc(C)c1 (stereo in doubt) [Example 91.0, (1S,2S)-N-(4-(2,6-dimethoxyphenyl)-5-(5-methylpyridin-3-yl)-4H-1,2,4-triazol-3-yl)-1-isopropoxy-1-(5-methylpyrimidin-2-yl)propane-2-sulfonamide]
MI Rat Model dP/dtmax(%) (heart failure rat model; [2]): 25% | Isolated Heart Assay dP/dtmax(%) [1, 3]: 20.0% | Isolated Heart Assay dP/dtmin(%) [1, 4]: 43.0%

COc1cccc(OC)c1-n1c(NS(=O)(=O)[C@H](C)[C@@H](OC(C)C)c2ncc(C)cn2)nnc1-c1cccnc1 (stereo in doubt) [Example 624.0, (1S,2R)-N-(4-(2,6-dimethoxyphenyl)-5-(3-pyridinyl)-4H-1,2,4-triazol-3-yl)-1-(1-methylethoxy)-1-(5-methyl-2-pyrimidinyl)-2-propanesulfonamide, (1R,2S)-N-(4-(2,6-dimethoxyphenyl)-5-(3-pyridinyl)-4H-1,2,4-triazol-3-yl)-1-(1-methylethoxy)-1-(5-methyl-2-pyrimidinyl)-2-propanesulfonamide]
EC50 (APJ; [6]): 0.16 µM

COc1cccc(OC)c1-n1c(NS(=O)(=O)[C@@H](C)[C@@H](OC(C)C)c2ncc(C)cn2)nnc1-c1cccnc1 (stereo in doubt) [Example 625.0]
EC50 (APJ; [6]): 0.11 µM

COc1cccc(OC)c1-n1c(NS(=O)(=O)[C@H](C)[C@@H](OC(C)C)c2ncc(C)cn2)nnc1-c1cccnc1 (stereo in doubt) [Example 626.0, (1S,2R)-N-(4-(2,6-dimethoxyphenyl)-5-(3-pyridinyl)-4H-1,2,4-triazol-3-yl)-1-(1-methylethoxy)-1-(5-methyl-2-pyrimidinyl)-2-propanesulfonamide, (1R,2S)-N-(4-(2,6-dimethoxyphenyl)-5-(3-pyridinyl)-4H-1,2,4-triazol-3-yl)-1-(1-methylethoxy)-1-(5-methyl-2-pyrimidinyl)-2-propanesulfonamide]
EC50 (APJ; [6]): 0.0018 µM

COc1cccc(-c2nnc(NS(=O)(=O)[C@@H](C)[C@H](O)c3ccc(F)cc3S(C)(=O)=O)n2-c2c(OC)cccc2OC)n1 [Example 288.0]
EC50 (APJ; Activity hAPJ SPA EC50 IP (μM)): 0.0011 µM

COc1ccc(Cl)c(OC)c1-n1c(-c2cncc(C)c2)nnc1S(=O)(=O)NCCc1ccc(Cl)cc1 [Example 373.0, 4-(3-chloro-2,6-dimethoxyphenyl)-N-(2-(4-chlorophenyl)ethyl)-5-(5-methyl-3-pyridinyl)-4H-1,2,4-triazole-3-sulfonamide]
EC50 (APJ; Activity hAPJ SPA EC50 IP (μM)): 0.31 µM

COc1cccc(OC)c1-n1c(NS(=O)(=O)[C@@H](C)[C@H](OC)c2ncc(-c3ccccc3)cn2)nnc1-c1cncc(C)c1 [Example 428.0, (1R,2S)-N-(4-(2,6-dimethoxyphenyl)-5-(5-methylpyridin-3-yl)-4H-1,2,4-triazol-3-yl)-1-methoxy-1-(5-phenylpyrimidin-2-yl)propane-2-sulfonamide]
EC50 (APJ; Activity hAPJ SPA EC50 IP (μM)): 0.0025 µM

CC#Cc1cnc([C@@H](OC)[C@H](C)S(=O)(=O)Nc2nnc(-c3cncc(C)c3)n2-c2c(OC)cccc2OC)nc1 [Example 535.0, (1R,2S)-N-(4-(2,6-dimethoxyphenyl)-5-(5-methylpyridin-3-yl)-4H-1,2,4-triazol-3-yl)-1-methoxy-1-(5-(prop-1-yn-1-yl)pyrimidin-2-yl)propane-2-sulfonamide]
EC50 (APJ; Activity hAPJ SPA EC50 IP (μM)): 0.0013 µM

COc1cccc(-c2nnc(NS(=O)(=O)CCc3ccc(C#N)cn3)n2-c2c(OC)cccc2OC)n1 [Example 550.0, 2-(5-cyanopyridin-2-yl)-N-(4-(2,6-dimethoxyphenyl)-5-(6-methoxypyridin-2-yl)-4H-1,2,4-triazol-3-yl)ethanesulfonamide]
EC50 (APJ; Activity hAPJ SPA EC50 IP (μM)): 0.0008 µM

CO[C@H](c1ncc(C)cn1)[C@H](C)S(=O)(=O)Nc1nnc(-c2cncc(C)c2)n1-c1c(C)cccc1C [Example 673.0, (1R,2S)-N-(4-(2,6-dimethylphenyl)-5-(5-methyl-3-pyridinyl)-4H-1,2,4-triazol-3-yl)-1-methoxy-1-(5-methyl-2-pyrimidinyl)-2-propanesulfonamide 2,2,2-trifluoroacetate]
EC50 (APJ; Activity hAPJ SPA EC50 IP (μM)): 0.022 µM

COCCO[C@H](c1ncc(C)cn1)[C@H](C)S(=O)(=O)Nc1nnc(-c2cccc(OC)n2)n1-c1c(OC)cccc1OC [Example 695.0, (1R,2S)-N-(4-(2,6-dimethoxyphenyl)-5-(6-methoxypyridin-2-yl)-4H-1,2,4-triazol-3-yl)-1-(2-methoxyethoxy)-1-(5-methylpyrimidin-2-yl)propane-2-sulfonamide]
EC50 (APJ; Activity hAPJ SPA EC50 IP (μM)): 0.00012 µM

COc1cccc(OC)c1-n1c(NS(=O)(=O)[C@@H](C)[C@H](C)c2ncc(C#N)cn2)nnc1-c1cncc(C)c1 [Example 697.0, (2S,3R)-3-(5-cyano-2-pyrimidinyl)-N-(4-(2,6-dimethoxyphenyl)-5-(5-methyl-3-pyridinyl)-4H-1,2,4-triazol-3-yl)-2-butanesulfonamide]
EC50 (APJ; Activity hAPJ SPA EC50 IP (μM)): 0.0007 µM

COc1cccc(OC)c1-n1c(NS(=O)(=O)[C@@H](C)[C@H](C)c2ncc(C)cn2)nnc1-c1cncc(C2CC2)c1 [Example 734.0, (2S,3R)-N-(5-(5-cyclopropylpyridin-3-yl)-4-(2,6-dimethoxyphenyl)-4H-1,2,4-triazol-3-yl)-3-(5-methylpyrimidin-2-yl)butane-2-sulfonamide]
EC50 (APJ; Activity hAPJ SPA EC50 IP (μM)): 0.002 µM

COc1cnc([C@@H](C)[C@H](C)S(=O)(=O)Nc2nnc(-c3cccc(OC)n3)n2-c2c(F)cccc2F)cn1 [Example 787.0, (2S,3R)-N-(4-(2,6-difluorophenyl)-5-(6-methoxy-2-pyridinyl)-4H-1,2,4-triazol-3-yl)-3-(5-methoxy-2-pyrazinyl)-2-butanesulfonamide]
EC50 (APJ; Activity hAPJ SPA EC50 IP (μM)): 0.00053 µM
